From publication PMC9949698, “Visible-Light-Controlled Histone Deacetylase Inhibitors for Targeted Cancer Therapy” (Journal of Medicinal Chemistry, 2023)
Read-outs that look alike come from different tables or passages of the source.

Tests used:
human recombinant HDAC1 = target: T1, human recombinant HDAC1 (Homo sapiens, UniProt Q13547); assay: Fluorogenic assay with human recombinant HDAC1, dark or illumination; format: biochemical; conditions: for relative activity of cis and trans forms: dark vs light, in words
T1 construct: purchased BPS Bioscience
T1 sequence (Q13547 whole entry): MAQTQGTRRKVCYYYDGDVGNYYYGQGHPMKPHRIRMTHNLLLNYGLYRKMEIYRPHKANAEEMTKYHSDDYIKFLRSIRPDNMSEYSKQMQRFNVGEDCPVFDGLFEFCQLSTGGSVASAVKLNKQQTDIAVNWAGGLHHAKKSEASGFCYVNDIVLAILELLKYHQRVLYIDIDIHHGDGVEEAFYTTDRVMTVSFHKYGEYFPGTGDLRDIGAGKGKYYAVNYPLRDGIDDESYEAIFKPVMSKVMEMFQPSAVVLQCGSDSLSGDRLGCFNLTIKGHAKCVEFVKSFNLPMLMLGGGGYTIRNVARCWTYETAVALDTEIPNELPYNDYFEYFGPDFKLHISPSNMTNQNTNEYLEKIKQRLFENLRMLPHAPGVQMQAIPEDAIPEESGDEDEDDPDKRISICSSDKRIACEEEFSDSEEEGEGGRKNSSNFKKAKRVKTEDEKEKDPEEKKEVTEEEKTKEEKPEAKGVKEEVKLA
Procedure: To study the inhibition of HDAC enzymes by the compounds, we used a fluorogenic assay with human recombinant HDAC1.[32] The enzyme was incubated with an acetylated substrate and each inhibitor for 1 h at room temperature, under either dark or light conditions. We opted for illumination throughout the incubation period to maintain the maximum proportion of cis under light conditions. […] Then, the deacetylated substrate generated a fluorescent coumarin after incubation of the mixture with trypsin at 37 °C for 20 min.
Stock solutions of the compounds were diluted to 1 mM in DMSO and then heated to 60 or 80 °C to obtain solutions with the maximum amount of the trans isomer (dark). […] The 1 mM solutions were then serially diluted with HDAC buffer to 10 times the desired concentration, maintaining DMSO at 10%.
In control wells without the compound, inhibitor, or enzyme, HDAC buffer was added instead. […] Then, 50 μL of the stop solution was added and the plates were incubated at 37 °C for 20 min in the dark. Fluorescence was measured at a λem of 460 nm and a λex of 380 nm. Enzyme activity is expressed as a percentage with respect to the nontreated cells, after subtracting the blank (well with no enzyme and no compound).

HeLa cells = assay: HeLa cell viability, MTS assay, dark or preillumination; format: cell-based; conditions: for IC50: Homo sapiens, HeLa; for IC50(dark)/IC50(light): Table 5; for activity under dark and illumination conditions: in words
Procedure: We then proceeded to evaluate the effect of the compounds in a viability assay against HeLa cells.
HeLa, MCF7, and HT29 cells were maintained in adherent cultures in DMEM supplemented with 10% FBS. KG1 cells were maintained in a suspension culture in IMDM supplemented with 20% FBS.
Stock solutions of the compounds were heated to 60 or 80 °C to obtain solutions with the maximum amount of the trans isomer (dark). […] The solutions were then serially diluted with DMEM to give 20 times the desired final concentration, maintaining DMSO at 10%.
Cells were seeded in 96-well black flat bottom plates with a clear bottom at a density of 5 × 10^3 cells/well (HeLa) or 1 × 10^4 cells/well (MCF7, HT29, and KG1), in a volume of 95 μL.
Viability of HeLa, MCF7, and […] cells was determined with a CellTiter 96 assay (Promega), according to the manufacturer’s instructions. Briefly, 20 μL of CellTiter 96 reagent was added to each well, the plates were incubated at 37 °C for 2 h, and the absorbance at 490 nm was recorded. Viability is expressed as a percentage with respect to the nontreated cells.

[1] = E/Z composition under light or temperature conditions by HPLC; format: physicochemical
[2] = UV–vis spectra and optimal isomerization wavelengths; format: physicochemical; conditions: for λcis (optimal wavelength trans to cis) / λtrans (optimal wavelength cis to trans): UV–vis at 25–50 μM in DMSO, Teleopto plates (Table 1)
Procedure: Ultraviolet–visible (UV–vis) spectra were recorded using a Tecan Spark 20M Multimode Microplate reader. Samples (200 μL of compound solution/well) were prepared at […] in DMSO. Samples were measured between 300 and 800 nm with 2 nm fixed intervals in 96-well transparent plates. Illumination at different wavelengths was performed for 2 min using 96-well LED array plates (LEDA Teleopto) placed below the samples. […] Potencies were measured using a Thorlabs PM100D power energy meter connected with a standard photodiode power sensor (S120VC).

[3] = continuous illumination 550 nm (Table 4), read-out: IC50 light
[4] = dark (Table 4), read-out: IC50 dark
[5] = dark, 48 h, read-out: IC50 dark (concentration that reduces cell viability by half)
[6] = HPLC at isosbestic point (290–336 nm), 100 μM in DMSO after illumination with λcis (Table 3)
[7] = HPLC at isosbestic point (290–336 nm), 100 μM in DMSO after illumination with λtrans (Table 3)
[8] = UV–vis spectra at 25–100 μM in DMSO (Table 3)
[9] = UV–vis spectra at 25–50 μM in DMSO (Table 1)
[10] = dark vs 365 or 380 nm (Table 2), fold
[11] = dark, 1 h at room temperature (Table 2), read-out: IC50 dark
[12] = illumination 365 or 380 nm, 1 h at room temperature (Table 2), read-out: IC50 light
[13] = preillumination 380 nm, 48 h, read-out: IC50 light (concentration that reduces cell viability by half)
[14] = supplementary CSV, read-out: HeLa MTS IC50 light
[15] = HPLC at isosbestic point (310–338 nm), 100 μM in DMSO after illumination with λcis (Table 1)
[16] = HPLC at isosbestic point (310–338 nm), 100 μM in DMSO after illumination with λtrans (Table 1)
[17] = supplementary CSV, read-out: HDAC1 IC50 light
[18] = supplementary CSV, read-out: HDAC1 IC50 dark

Compound	IC50(dark)/IC50(light) (human recombinant HDAC1; Table 4)	IC50 (human recombinant HDAC1; [4]) [µM]	% cis at λcis [1, 6] [%]	% trans at λtrans [1, 7] [%]	λcis [2, 8] [nm]	λmax cis [2, 8] [nm]	λmax trans [2, 8] [nm]	λtrans [2, 8] [nm]	λcis (optimal wavelength trans to cis) [2] [nm]	λmax trans [2, 9] [nm]	other results
COc1cc(F)c(/N=N/c2c(F)cc(/C=C/C(=O)NO)cc2F)c(F)c1 [Compound 39, (E)-3-(4-((E)-(2,6-Difluoro-4-methoxyphenyl)diazenyl)-3,5-difluorophenyl)-N-hydroxyacrylamide]	2.6	0.14	72	83	550	438	358	455	–	–	IC50 (human recombinant HDAC1; [3]): 0.054 µM; IC50 (HeLa cells; [5]): 6.7 µM; IC50 (HeLa cells; preillumination 550 nm, 48 h, read-out: IC50 light (concentration that reduces cell viability by half)): 13 µM; IC50(dark)/IC50(light) (HeLa cells): 0.52
CN(C)c1ccc(/N=N/c2ccc(/C=C/C(=O)Nc3ccccc3N)cc2)cc1 [Compound 12, (E)-N-(2-Aminophenyl)-3-(4-((E)-(4-(dimethylamino)phenyl)diazenyl)phenyl)acrylamide]	–	–	–	–	–	–	–	–	470	462	–
COc1ccc(/N=N/c2ccc(C(=O)Nc3ccccc3N)cc2)cc1 [Compound 18, (E)-N-(2-Aminophenyl)-4-((4-methoxyphenyl)diazenyl)benzamide]	–	–	–	–	–	–	–	–	380	364	IC50(dark)/IC50(light) (human recombinant HDAC1; [10]): 6; IC50 (human recombinant HDAC1; [11]): 1.2 µM; IC50 (human recombinant HDAC1; [12]): 0.2 µM; IC50 (HeLa cells; [13]): ~19 µM; IC50 (HeLa cells; [14]): 19 µM; IC50(dark)/IC50(light) (HeLa cells): >5.3; % cis at λcis [1, 15]: 82%; % trans at λtrans [1, 16]: 79%; λtrans (optimal wavelength cis to trans) [2]: 550 nm
COc1cc(Cl)c(/N=N/c2c(Cl)cc(C(=O)Nc3ccccc3N)cc2Cl)c(Cl)c1 [Compound 38b, (E)-N-(2-Aminophenyl)-3,5-dichloro-4-((2,6-dichloro-4-methoxyphenyl)diazenyl)benzamide]	–	–	46	84	550	452	336	455	–	–	–
COc1cc(Cl)c(/N=N/c2c(Cl)cc(/C=C/C(=O)Nc3ccccc3N)cc2Cl)c(Cl)c1 [Compound 32b, (E)-N-(2-Aminophenyl)-3-(3,5-dichloro-4-((E)-(2,6-dichloro-4-methoxyphenyl)diazenyl)phenyl)acrylamide]	–	–	45	88	550	452	338	455	–	–	IC50 (human recombinant HDAC1; [3]): ~10 µM; IC50 (human recombinant HDAC1; [17]): 10 µM
COc1ccc(/N=N/c2ccc(/C=C/C(=O)Nc3ccccc3N)cc2Cl)c(Cl)c1 [Compound 32e, (E)-N-(2-Aminophenyl)-3-(3-chloro-4-((E)-(2-chloro-4-methoxyphenyl)diazenyl)phenyl)acrylamide]	–	> 10	64	62	380	464	396	455	–	–	IC50 (human recombinant HDAC1; continuous illumination 380 nm (Table 4), read-out: IC50 light): > 10 µM; IC50 (human recombinant HDAC1; [18]): > 10 µM; IC50 (human recombinant HDAC1; [17]): > 10 µM
CN(C)c1cc(Cl)c(/N=N/c2c(Cl)cc(/C=C/C(=O)Nc3ccccc3N)cc2Cl)c(Cl)c1 [Compound 33b, (E)-N-(2-Aminophenyl)-3-(3,5-dichloro-4-((E)-(2,6-dichloro-4-(dimethylamino)phenyl)diazenyl)phenyl)acrylamide]	>2	> 10	–	–	420	–	412	550	–	–	activity under dark and illumination conditions (HeLa cells): inactive
CN(C)c1ccc(/N=N/c2ccc(C(=O)NO)cc2)cc1 [Compound 19, (E)-4-((4-(Dimethylamino)phenyl)diazenyl)-N-hydroxybenzamide]	–	–	–	–	–	–	–	–	–	446	–
CN(C)c1cc(F)c(/N=N/c2c(F)cc(/C=C/C(=O)Nc3ccccc3N)cc2F)c(F)c1 [Compound 33a, (E)-N-(2-Aminophenyl)-3-(4-((E)-(4-(dimethylamino)-2,6-difluorophenyl)diazenyl)-3,5-difluorophenyl)acrylamide]	>8.3	–	–	–	420	–	430	550	–	–	activity at the highest tested concentration in the dark (human recombinant HDAC1; 10 μM, dark): no or little activity; IC50 under illumination, in words (human recombinant HDAC1; continuous illumination): low micromolar range; activity under dark and illumination conditions (HeLa cells): inactive
COc1ccc(/N=N/c2ccc(C(=O)NO)cc2)cc1 [Compound 17, (E)-N-Hydroxy-4-((4-methoxyphenyl)diazenyl)benzamide]	–	–	–	–	–	–	–	–	380	360	IC50(dark)/IC50(light) (human recombinant HDAC1; [10]): 0.14; relative activity of cis and trans forms (human recombinant HDAC1): more active in the trans form than in the cis form; IC50 (human recombinant HDAC1; [11]): 0.42 µM; IC50 (human recombinant HDAC1; [12]): 2.9 µM; IC50 (HeLa cells; [5]): ~25 µM; IC50 (HeLa cells; [13]): ~25 µM; IC50 (HeLa cells; supplementary CSV, read-out: HeLa MTS IC50 dark): 25 µM; IC50 (HeLa cells; [14]): 25 µM; IC50(dark)/IC50(light) (HeLa cells): ≈1; % cis at λcis [1, 15]: 84%; % trans at λtrans [1, 16]: 92%; λtrans (optimal wavelength cis to trans) [2]: 550 nm
COc1ccc(/N=N/c2ccc(/C=C/C(=O)Nc3ccccc3N)cc2F)c(F)c1 [Compound 32d, (E)-N-(2-Aminophenyl)-3-(3-fluoro-4-((E)-(2-fluoro-4-methoxyphenyl)diazenyl)phenyl)acrylamide]	≈22	~10	67	59	380	448	388	550	–	–	IC50 (human recombinant HDAC1; [18]): 10 µM
COc1ccc(/N=N/c2ccc(CCC(=O)Nc3ccccc3N)cc2)cc1 [Compound 21, (E)-N-(2-Aminophenyl)-3-(4-((4-methoxyphenyl)diazenyl)phenyl)propanamide]	–	–	–	–	–	–	–	–	380	354	IC50(dark)/IC50(light) (human recombinant HDAC1; [10]): >2.9; relative activity of cis and trans forms (human recombinant HDAC1): active only in the cis form; IC50 (human recombinant HDAC1; [11]): > 10 µM; IC50 (human recombinant HDAC1; [12]): 3.4 µM; % cis at λcis [1, 15]: 87%; % trans at λtrans [1, 16]: 84%; λtrans (optimal wavelength cis to trans) [2]: 550 nm
